Reference: PubChem BioAssay (NCI)
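Results reflect a 48-hour exposure of cells in 96-well plates to compound at five concentrations. Here, GI50 denotes the concentration required for 50% inhibition of growth. TGI: concentration producing complete growth inhibition.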

How the values were obtained:
Assay in all cases: NCI tumour cell line growth inhibition, 48 h
[1] = test system: A498 renal
[2] = test system: TK-10 renal
[3] = test system: SK-OV-3 ovarian
[4] = test system: HT29 colon
[5] = test system: A549 NSCLC
[6] = test system: OVCAR-4 ovarian
[7] = test system: M14 melanoma
[8] = test system: UACC-257 melanoma
[9] = test system: HCT-15 colon
[10] = test system: NCI-H23 lung

SMILES | TGI [1] [µM] | TGI [2] [µM] | TGI [3] [µM] | TGI [4] [µM] | TGI [5] [µM] | TGI [6] [µM] | TGI [7] [µM] | TGI [8] [µM] | TGI [9] [µM] | TGI [10] [µM] | GI50 [1] [µM] | GI50 [3] [µM] | GI50 [4] [µM] | GI50 [7] [µM] | GI50 [8] [µM] | GI50 [9] [µM] | GI50 [10] [µM]
OCC(O)COCn1nncc1Cn1ncc2c(SCc3ccccc3)ncnc21 (centres undefined) | > 100 | > 100 | > 100 | > 100 | > 100 | > 100 | > 100 | > 100 | > 100 | > 100 |  |  |  |  |  |  | 
Oc1ccc(-c2nc(-c3cccnc3)c(-c3ccc(Cl)cc3)[nH]2)cc1 |  | 26.3 | 26.8 | 28.4 | 30.1 | 23.3 | 26.1 | 29.6 | 25.2 | 25.9 |  |  |  |  |  |  | 
COc1ccc(C2OC[C@H]3O[C@@H](OCc4ccccc4)[C@H](O)[C@@H](O)[C@@H]3O2)cc1 (some centres undefined) | > 100 | > 100 | > 100 | > 100 | > 100 | > 100 |  | > 100 | > 100 | > 100 |  |  |  |  |  |  | 
COc1ccccc1/C=C1\SC(=S)N(/C=C2\C(=O)Oc3ccccc3C2=O)C1=O |  | 95.9 | 76 | > 100 | > 100 | > 100 | > 100 | 62.2 | > 100 | 10.1 |  |  |  |  |  |  | 
Cc1ccc(N=Nc2c(O)ccc3cc(S(=O)(=O)O)cc(S(=O)(=O)O)c23)cc1 | > 100 | > 100 | > 100 |  | > 100 | > 100 | > 100 | > 100 | > 100 | > 100 |  |  |  |  |  |  | 
N=C(N)c1ccc(C(NC(=O)CNS(=O)(=O)c2ccc3ccccc3c2)P(=O)(Oc2ccccc2)Oc2ccccc2)cc1 (centres undefined) |  |  | > 100 | > 100 | > 100 | > 100 | > 100 | > 100 | > 100 | > 100 |  |  |  |  |  |  | 
O=C1C(CN2CCCCC2)CCC1CN1CCCCC1 (centres undefined) | 29.2 | 37 | > 100 | 40.4 | > 100 |  | 32 | 47.1 | 47.4 | 53.7 |  |  |  |  |  |  | 
CC(=O)OCC12C(=O)C[C@@H](C)C3(CC(c4ccoc4)OC3=O)C1CCC(OC(C)=O)C21CO1 (some centres undefined) | > 100 | > 100 |  | > 100 | > 100 | > 100 | > 100 | > 100 | > 100 | > 100 |  |  |  |  |  |  | 
O=C(c1ccc(N=Cc2ccccc2O)cc1)c1ccc(N=Cc2ccccc2O)cc1 | > 100 | > 100 | > 100 | > 100 | > 100 | > 100 | > 100 |  | > 100 | > 100 |  |  |  |  |  |  | 
c1ccc2c(c1)ccn2CCc1c[nH]c2ccccc12 |  | > 10 | > 10 | > 10 | > 10 | > 10 | > 10 | > 10 | > 10 | > 10 |  |  |  |  |  |  | 
CNc1ccc(C(=O)CC(O)CCC(C)C2OC(=O)CC(O)CC(=O)CC(O)CC(O)CC(O)CC(O)CC3(O)CC(O)C(C(=O)OC)C(CC(O[C@@H]4O[C@H](C)[C@@H](O)[C@H](N)[C@@H]4O)/C=C/C=C/C=C/C=C/C=C/C=C/C=C/C2C)O3)cc1 (some centres undefined) | 2.89 |  | 6.92 | 24.7 |  |  | 7.32 | 3.18 | > 100 | 4.84 | 1.23 | 2.66 | 3.63 | 2.26 | 1.45 | 4.9 | 1.92
Nc1cc2[nH]c(=O)c(=O)[nH]c2cc1N | > 100 | > 100 | > 100 | > 100 | > 100 | > 100 |  | > 100 | > 100 | > 100 |  |  |  |  |  |  | 
CCOC(=O)c1nc2ccc(C(F)(F)F)cc2nc1NCc1cc(OC)c(OC)c(OC)c1 | > 100 | > 100 |  | > 100 | > 100 |  | > 100 | > 100 | > 100 | > 100 |  |  |  |  |  |  | 
CC(C)=CCC/C(C)=C/C=C/C(C)=C/C=C/C(C)=C/C=C/C=C(C)/C=C/C=C(C)/C=C/[C@H]1C(C(C)(C)O)CC[C@]1(C)O (some centres undefined) | 84.8 | > 100 | > 100 | 86.2 |  | > 100 | 91.1 | 59.2 | 51.8 | 72.7 |  |  |  |  |  |  | 
O=C1CCC(c2ccc(Cl)cc2)=NN1c1nsc2ccccc12 |  | > 100 |  | > 100 | > 100 | > 100 |  | 68.8 |  | > 100 |  |  |  |  |  |  | 
Cc1ccc(SCC(CF)OC(C)n2cnc3c(=O)[nH]c(N)nc32)cc1 (centres undefined) |  | > 100 | > 100 | > 100 | > 100 | > 100 | > 100 | > 100 | > 100 | > 100 |  |  |  |  |  |  | 
CC1NC(=O)CC(c2ccccc2)N(N=O)C1c1ccccc1 (centres undefined) | 52.3 |  | 62.6 | > 100 | > 100 | > 87.5 |  | > 100 | > 100 | > 100 |  |  |  |  |  |  | 
COC(CNC(=O)C(C)NC(=O)CCc1ccccc1)OC (centres undefined) |  | > 100 | > 100 | > 100 | > 100 | > 100 | > 100 | > 100 | > 100 | > 100 |  |  |  |  |  |  | 
O=Cc1ccc(OCc2cccc(COc3ccc(/C=N\Nc4ccc([N+](=O)[O-])cc4[N+](=O)[O-])cc3)n2)cc1 | > 100 | > 100 |  | > 100 | > 100 | > 100 | > 100 | > 100 | > 100 | > 100 |  |  |  |  |  |  | 
CC12C(=O)CC(CC1=O)C2(C)C |  | > 100 | > 100 | > 100 | > 100 | > 100 | > 100 | > 100 | > 100 |  |  |  |  |  |  |  | 
CCOC(=O)/C=C(/C(=O)OCC)n1ccc(=O)n(Cc2cn(COCCOC(C)=O)nn2)c1=O | 56.1 | 32 | > 100 | 31.9 | > 100 | 42.7 |  | 42.4 | 55.6 | 41.4 |  |  |  |  |  |  | 
O=C(O)c1ccc([N+](=O)[O-])c2cc3cnccc3nc12 | > 100 |  | > 100 | 57.3 |  |  | 37.2 |  | 45 | 62.9 |  |  |  |  |  |  | 
